The term EC50 denotes the concentration giving half of the maximal effect. A lower EC50 goes with an effect from little substance.

The experiment has as its target T1, human FXR (Homo sapiens, UniProt Q96RI1).
T1 construct: expressed in transfected cells
T1 sequence (Q96RI1 262-486 limits assumed): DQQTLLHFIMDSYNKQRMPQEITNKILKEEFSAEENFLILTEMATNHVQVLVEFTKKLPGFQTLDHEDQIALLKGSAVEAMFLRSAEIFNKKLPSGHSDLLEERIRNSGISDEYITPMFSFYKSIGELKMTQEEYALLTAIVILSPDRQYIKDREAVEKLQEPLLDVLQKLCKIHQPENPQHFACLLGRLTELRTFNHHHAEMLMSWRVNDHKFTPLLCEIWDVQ
The experiment is described as follows: transient human FXR/Gal4-luciferase reporter assay. The experiment is classed as cell-based. Conditions: Gal4-hFXR (ligand binding domain) fusion transiently transfected in HEK293 Gal4-luciferase reporter cells; overnight incubation; response as percentage of 8 μM GW-4064 control. On the procedure: A Gal4-hFXR fusion construct reporter system was used as the primary assay to characterize compound activity. A construct including 5 copies of the Gal4 promoter response element upstream of a firefly luciferase reporter cDNA was stably expressed in HEK293 cells. This reporter cell line was maintained in Dulbecco's Modified Eagle's medium (DMEM; Gibco) supplemented with 1% penicillin-streptomycin (P/S) solution, 500 μg/ml Zeocin and 10% charcoal/dextran-treated fetal bovine serum (cs-FBS) at 37° C. in a humidified 5% CO2 atmosphere. Another plasmid was constructed in which the human cytomegalovirus promoter in the pcDNA3.1 vector directs the expression of the cDNA encoding a fusion protein comprised of the DNA binding domain from the Gal4 transcription factor fused to the ligand binding domain from human FXR.
The day prior to transfection, the reporter cells in culture are detached from the plate with trypsin and plated into a T75 flask at a sufficient density to achieve approximately 90% confluence the next morning. The transfection reagents are prepared by separately diluting 25 μg of the pcDNA3.1-Gal4-FXR plasmid into 1.87 mL of Opti-MEM (Thermo-Fisher), and 40 μL of Lipofectamine 2000 (Thermo-Fisher) into 1.87 mL of Opti-MEM, and then adding the diluted DNA solution into the diluted Lipofectamine 2000 solution and incubating at room temperature for 15-20 minutes. The mixture is further diluted with 10 ml of a solution comprised of DMEM, 10% cs-FBS, and 1% P/S immediately prior to transferring to the cells. The maintenance culture media is aspirated from the cells and the final transfection mixture is added before the cells are incubated overnight at 37° C. in a humidified 5% CO2 atmosphere. This protocol can be scaled up, and the transiently transfected cells can be cryopreserved in an assay-ready format.
For compound testing, 100 nL of the compounds (serial dilutions in DMSO) are dispensed with an Echo acoustic dispenser (Labcyte) into the wells of a Corning/Costar clear bottom 384-well white plate. The transfected cells are harvested, counted, and diluted such that 10-25,000 cells in 25 μL are plated into each well of the 384-well compound assay plate. The compound-treated cells are incubated overnight at 37° C. in a humidified 5% CO2 atmosphere. The next morning 25 μL of Steady-Glo (Promega) are added to each well of the plate, the mixture is incubated for 15 min. with shaking, and luminescence is measured on an Envision (Perkin Elmer) plate reader.
As for `COC(=O)/C=C/c1cccc(N(C(=O)C2CCCCC2)C(C)C23CCC(c4nc(C)no4)(CC2)CC3)c1` (single isomer, unassigned) [Example 46, Methyl (E)-3-(3-(N-(1-(4-(3-methyl-1,2,4-oxadiazol-5-yl)bicyclo[2.2.2]octan-1-yl)ethyl)cyclohexanecarboxamido)phenyl)acrylate], the concentration for a half-maximal effect (EC50) was found to be 0.302 µM. As to `COC(=O)/C=C/c1cccc(N(C(=O)C2CCCCC2)C(C)C23CCC(c4nc(C)no4)(CC2)CC3)c1` (single isomer, unassigned) [Example 47, Methyl (E)-3-(3-(N-(1-(4-(3-methyl-1,2,4-oxadiazol-5-yl)bicyclo[2.2.2]octan-1-yl)ethyl)cyclohexanecarboxamido)phenyl)acrylate], a half-maximal effect (EC50) was put at 0.152 µM. Compared with the last compound, the EC50 is about 2-fold lower. The compound `COC(=O)/C=C/c1cccc(N(CC23CCC(c4ccc(N(C)C)cc4)(CC2)CC3)C(=O)C2CCCCC2)c1` [Example 1, Methyl (E)-3-(3-(N-((4-(4-(dimethylamino)phenyl)bicyclo[2.2.2]octan-1-yl)methyl)cyclohexanecarboxamido)phenyl)acrylate] came in with an EC50 of 0.078 µM. This EC50 lies about 1.9-fold lower than the previous one. As for `CN(C)c1ccc(C23CCC(CN(C(=O)C4CCCCC4)c4cccc(/C=C/C(=O)O)c4)(CC2)CC3)cc1` [Example 2, (E)-3-(3-(N-((4-(4-(dimethylamino)phenyl)bicyclo[2.2.2]octan-1-yl)methyl)cyclohexanecarboxamido)phenyl)acrylic Acid], the response was half-maximal at 1.52 µM (EC50). In turn, `COC(=O)/C=C/c1cccc(N(CC23CCC(c4ccc(N5CCOCC5)cc4)(CC2)CC3)C(=O)C2CCCCC2)c1` [Example 3, (E)-methyl 3-(3-(N-((4-(4-morpholinophenyl)bicyclo[2.2.2]octan-1-yl)methyl)cyclohexanecarboxamido)phenyl)acrylate] returned an EC50 of 0.165 µM.

Compound `COC(=O)/C=C/c1cccc(N(CC23CCC(c4ccc(N5CCCC5)cc4)(CC2)CC3)C(=O)C2CCCCC2)c1` [Example 4, (E)-methyl 3-(3-(N-((4-(4-(pyrrolidin-1-yl)phenyl)bicyclo[2.2.2]octan-1-yl)methyl)cyclohexanecarboxamido)phenyl)acrylate] registered an EC50 of 0.52 µM. Compound `COC(=O)/C=C/c1cccc(N(CC23CCC(c4ccc(N(C)C)cc4)(CC2)CC3)C(=O)C2CCOCC2)c1` [Example 6, Methyl (E)-3-(3-(N-((4-(4-(dimethylamino)phenyl)bicyclo[2.2.2]octan-1-yl)methyl)tetrahydro-2H-pyran-4-carboxamido)phenyl)acrylate] displayed an EC50 of 0.212 µM. For `COC(=O)/C=C/c1cccc(N(CC23CCC(c4ccccc4)(CC2)CC3)C(=O)C2CCCCC2)c1` [Example 7, Methyl (E)-3-(3-(N-((4-phenylbicyclo[2.2.2]octan-1-yl)methyl)cyclohexanecarboxamido)phenyl)acrylate], the EC50 turned out to be 0.395 µM. This EC50 is about 1.9-fold higher than that of the compound before. The result for `COC(=O)/C=C/c1cccc(N(CC23CCC(c4ccc5c(cnn5C)c4)(CC2)OC3)C(=O)C2CCOCC2)c1` [Example 8, (E)-Methyl 3-(3-(N-((1-(1-methyl-1H-indazol-5-yl)-2-oxabicyclo[2.2.2]octan-4-yl)methyl)tetrahydro-2H-pyran-4-carboxamido)phenyl)acrylate] reads 1.6 µM; that for `COC(=O)/C=C/c1cccc(N(CC23CCC(c4ccc5c(cnn5C)c4)(CC2)OC3)C(=O)C2CCN(C)CC2)c1` [Example 9, (E)-Methyl 3-(3-(1-methyl-N-((1-(1-methyl-1H-indazol-5-yl)-2-oxabicyclo[2.2.2]octan-4-yl)methyl)piperidine-4-carboxamido)phenyl)acrylate], 4.72 µM. As for `COC(=O)/C=C/c1cccc(N(CC23CCC(c4ccc(OC)cc4)(CC2)OC3)C(=O)C2CCCCC2)c1` [Example 10, Methyl (E)-3-(3-(N-((1-(4-methoxyphenyl)-2-oxabicyclo[2.2.2]octan-4-yl)methyl)cyclohexanecarboxamido)phenyl)acrylate], the EC50 came to 0.319 µM. Compared with the last compound, the EC50 is about 15-fold lower. `COC(=O)C1=Cc2cccc(N(CC34CCC(c5ccc(N6CCOCC6)cc5)(CC3)CC4)C(=O)C3CCCCC3)c2CC1` [Example 11, Methyl 5-(N-((4-(4-morpholinophenyl)bicyclo[2.2.2]octan-1-yl)methyl)cyclohexanecarboxamido)-3,4-dihydronaphthalene-2-carboxylate]: the EC50 was 2.74 µM. The result for `COC(=O)C1=Cc2cccc(N(CC34CCC(c5ccc(N(C)C)cc5)(CC3)CC4)C(=O)C3CCCCC3)c2CC1` [Example 12, methyl 5-(N-((4-(4-(dimethylamino)phenyl)bicyclo[2.2.2]octan-1-yl)methyl)cyclohexanecarboxamido)-3,4-dihydronaphthalene-2-carboxylate] reads 2.58 µM; that for `CCN(CC)c1ccc(C23CCC(CN(C(=O)C4CCCCC4)c4cccc5c4CCC(C(=O)OC)=C5)(CC2)CC3)cc1` [Example 13, methyl 5-(N-((4-(4-(diethylamino)phenyl)bicyclo[2.2.2]octan-1-yl)methyl)cyclohexanecarboxamido)-3,4-dihydronaphthalene-2-carboxylate], 0.912 µM; that for `COC(=O)/C=C(\C)c1cccc(N(CC23CCC(c4ccc(N5CCOCC5)cc4)(CC2)CC3)C(=O)C2CCCCC2)c1` [Example 14, Methyl (E)-3-(3-(N-((4-(4-morpholinophenyl)bicyclo[2.2.2]octan-1-yl)methyl)cyclohexanecarboxamido)phenyl)but-2-enoate], 1.15 µM. Compound `COC(=O)/C=C/c1cccc(N(CC23CCC(c4ccc(OC)cc4)(CC2)CC3)C(=O)C2CCCCC2)c1` [Example 15, Methyl (E)-3-(3-(N-((4-(4-methoxyphenyl)bicyclo[2.2.2]octan-1-yl)methyl)cyclohexanecarboxamido)phenyl)acrylate] gave an EC50 of 0.243 µM. `COC(=O)/C=C(\C)c1cccc(N(CC23CCC(c4ccc(OC)cc4)(CC2)CC3)C(=O)C2CCCCC2)c1` [Example 16, Methyl (E)-3-(3-(N-((4-(4-methoxyphenyl)bicyclo[2.2.2]octan-1-yl)methyl)cyclohexanecarboxamido)phenyl)but-2-enoate] gave an EC50 of 0.576 µM. In the case of `COc1ccc(C23CCC(CN(C(=O)C4CCCCC4)c4cccc5c4CCC(C(=O)O)=C5)(CC2)CC3)cc1` [Example 17, 5-(N-((4-(4-methoxyphenyl)bicyclo[2.2.2]octan-1-yl)methyl)cyclohexanecarboxamido)-3,4-dihydronaphthalene-2-carboxylic Acid], the EC50 came out at 2.24 µM. Compared with the last compound, the EC50 is about 3.9-fold higher. `COC(=O)C1=Cc2cccc(N(CC34CCC(c5ccc(OC)cc5)(CC3)CC4)C(=O)C3CCCCC3)c2CC1` [Example 18, Methyl 5-(N-((4-(4-methoxyphenyl)bicyclo[2.2.2]octan-1-yl)methyl)cyclohexanecarboxamido)-3,4-dihydronaphthalene-2-carboxylate]: the EC50 came to 1.81 µM. Compound `COC(=O)/C=C(\C)c1cccc(N(CC23CCC(c4nc(C)no4)(CC2)CC3)C(=O)C2CCCCC2)c1` [Example 19, Methyl (E)-3-(3-(N-((4-(3-methyl-1,2,4-oxadiazol-5-yl)bicyclo[2.2.2]octan-1-yl)methyl)cyclohexanecarboxamido)phenyl)but-2-enoate] registered an EC50 of 0.551 µM.

`COC(=O)/C=C/c1cccc(N(CC23CCC(c4nc(C)no4)(CC2)CC3)C(=O)C2CCCCC2)c1` [Example 20, Methyl (E)-3-(3-(N-((4-(3-methyl-1,2,4-oxadiazol-5-yl)bicyclo[2.2.2]octan-1-yl)methyl)cyclohexanecarboxamido)phenyl)acrylate] came in with an EC50 of 0.056 µM. With `COC(=O)/C=C/c1cccc(N(CC23CCC(c4nc(C)no4)(CC2)CC3)C(=O)C2CC2)c1` [Example 21, methyl (E)-3-(3-(N-((4-(3-methyl-1,2,4-oxadiazol-5-yl)bicyclo[2.2.2]octan-1-yl)methyl)cyclopropanecarboxamido)phenyl) acrylate], the EC50 worked out at 2.44 µM. On to `COC(=O)/C=C/c1cccc(N(CC23CCC(c4nc(C)no4)(CC2)CC3)C(=O)C(C)C)c1` [Example 22, methyl (E)-3-(3-(N-((4-(3-methyl-1,2,4-oxadiazol-5-yl)bicyclo[2.2.2]octan-1-yl)methyl)isobutyramido)phenyl)acrylate], for which the EC50 was 0.849 µM.

Values taken from patent US12030835B2, “Substituted amide compounds useful as farnesoid X receptor modulators” (BRISTOL-MYERS SQUIBB COMPANY, priority 2019, dated 2024).
